Five compounds from patent US11912682B2, “Isoindolinone compounds” (Monte Rosa Therapeutics, Inc., priority 2021, dated 2024) can be followed below.

Read-outs that look alike come from different tables or passages of the source. Bounds are passed on as bounds.

The target of data set [1] is IKZF3 (Aiolos) (Homo sapiens (Human), UniProt Q9UKT9). Description: selectivity by Western blot in MM1S cells, IKZF3. The data set is classed as cell-based. On the set-up: key to IKZF3 degradation: A represents a no degradation observed at 30 μM; B represents trace degradation at 30 μM (below 20%); C represents weak degradation at 30 μM (below 50%); D represents degradation at 30 μM (>90%); E represents degradation at 3 μM (>90%); F represents degradation at 0.3 μM (>90%). As to conditions: for IKZF3 degradation: MM1S cells, 6 hours, 0.3, 3 and 30 μM. How it is done:
(§1) MM1S cells were purchased from ATCC (cat. Number CRL-2974), sub-cultured in 90% RPMI 1640 with 10% FBS, supplemented with 1× P/S and incubated at 37° C., 5% CO2. Compounds were stored as 10 mM DMSO stock. For the assay, MM1S cells (3 million cells/well) were plated in 6-well plates and incubated over night. Cells were treated with respective compounds using a serial dilution: 0.3 μM, 3 μM and 30 μM as well as a vehicle only (DMSO) control for 6 hours. Media with suspension cells was subsequently transferred to 15 mL conical tubes, wells rinsed twice with ice-cold PBS and merged with cell suspension in respective 15 mL conical tube. Cells were spinned down, supernatant aspirated, pellets resuspended in ice-cold PBS and transferred to microtubes. Cells were spinned down, supernatant aspirated and pellets resuspended in 120 μL RIPA lysis buffer supplemented with protease and phosphatase inhibitors. Cell lysates were incubated on ice for 20 minutes followed by centrifugation at >20,000 xg for 5 min. Supernatants were transferred to fresh microtubes and stored at −80° C. Total protein concentration was determined using a BCA assay with a BSA standard curve and concentration of all samples was adjusted to 1 mg/mL. 25 μL 4× LDS sample buffer supplemented with 100 mM DTT was added to 75 μL sample. Samples were centrifuged (8,000 xg, 1 min) and incubated at 95° C. for 5 min followed by another centrifugation step (8,000 xg, 1 min). 20 μL of each sample was loaded on a 4-12% gel alongside a protein molecular weight marker. Gels were run in the presence of MOPS buffer at 80 Volts for 30 min, followed by 120 Volts for 1.5 h and proteins subsequently transferred onto nitrocellulose membranes at 20 Volts for 7 min using an iBlot2 Gel Transfer Device. Membranes were then cut horizontally into two pieces, covering 80-50 kDa and 50-25 kDa. Blocking the membranes was performed by gently shaking in 5% (w/v) skim milk in TSB-T for 1 hr at room temperature. All primary antibodies were used at a 1/1000 in 5% (w/v) BSA dissolved in TBST and incubated with membranes over night at 4° C. Anti-IKZF1 (Ikaros; D6N9Y; 14859S), anti-IKZF3 (Aiolos; D1C1E; 15103S) antibodies were purchased from Cell Signalling Technology, anti-ZFP91 antibody from Bethyl laboratories, anti-GSPT1 from Sigma Aldrich (HPA052488) and anti CK1alpha from AbCam (ab206652). After three washes with 1× TBST for 5 min, HRP-coupled secondary antibodies diluted in 5% (w/v) BSA/TBST (Goat Anti-Rb IgG, dil. 1/10,000; Goat Anti-Mouse IgG, dil. 1/5000) were added for 1 hr at room temperature. After three washes with 1× TBST (5 minutes each), membranes were incubated with ECL reagent for 1 min at room temperature. Chemiluminescence signals were then detected using a LAS-4000 system with default settings and signals quantified using Image Studio Lite software (version 5.2). Membrane parts previously incubated with antibody against CK1alpha were stripped off antibodies by incubating with stripping buffer for 30 minutes followed by three washed with TBST (5 min each), blocking with 5% (w/v) skim milk for 1 hr, and incubation with primary antibody against GAPDH overnight at 4° C. Subsequent washes, incubation with secondary antibody and signal acquisition were performed as described above.

Data set [2] concerns the target Full length wild-type cereblon CRBN (Homo sapiens (Human), UniProt Q96SW2). Nature of the data set: fluorescence polarization (FP) assay, cereblon binding. An outline of the steps: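 Full-length wild-type CRBN (80.0 nM as dispensed) preincubated 30 min at room temperature with compound in HEPES pH 8.0, NaCl, TCEP, 0.05% Tween 20.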
The target in data set [3] is IKZF1 (Ikaros) (Homo sapiens (Human), UniProt Q13422). Description: selectivity by Western blot in MM1S cells, IKZF1. The data set is classed as cell-based. On the set-up: key to IKZF1 degradation: A represents a no degradation observed at 30 μM; B represents trace degradation at 30 μM (below 20%); C represents weak degradation at 30 μM (below 50%); D represents degradation at 30 μM (>90%); E represents degradation at 3 μM (>90%); F represents degradation at 0.3 μM (>90%). The note with it: for IKZF1 degradation: MM1S cells, 6 hours, 0.3, 3 and 30 μM. The method, then:
as §1
In general terms: Immunoblotting shows a protein as a band on a membrane.

The target in data set [4] is SALL4 (Homo sapiens (Human), UniProt Q9UJQ4). Nature of the data set: substrate degradation in cells (FIG. 1A), SALL4. The data set is classed as cell-based. The note with it: highest concentration tested of 30 μM.
Data set [5] deals with human cell line NCI-H1155. Nature of the data set: N-Myc-driven mouse xenograft model, NCI-H1155 (FIG. 3A). The format is in vivo. The note with it: for tumor size (tumor volume): study to day 21.
Where [6] appears, read: highest concentration tested of 30 μM.

IKZF3 (Aiolos), sequence (Q9UKT9 whole entry, looked up): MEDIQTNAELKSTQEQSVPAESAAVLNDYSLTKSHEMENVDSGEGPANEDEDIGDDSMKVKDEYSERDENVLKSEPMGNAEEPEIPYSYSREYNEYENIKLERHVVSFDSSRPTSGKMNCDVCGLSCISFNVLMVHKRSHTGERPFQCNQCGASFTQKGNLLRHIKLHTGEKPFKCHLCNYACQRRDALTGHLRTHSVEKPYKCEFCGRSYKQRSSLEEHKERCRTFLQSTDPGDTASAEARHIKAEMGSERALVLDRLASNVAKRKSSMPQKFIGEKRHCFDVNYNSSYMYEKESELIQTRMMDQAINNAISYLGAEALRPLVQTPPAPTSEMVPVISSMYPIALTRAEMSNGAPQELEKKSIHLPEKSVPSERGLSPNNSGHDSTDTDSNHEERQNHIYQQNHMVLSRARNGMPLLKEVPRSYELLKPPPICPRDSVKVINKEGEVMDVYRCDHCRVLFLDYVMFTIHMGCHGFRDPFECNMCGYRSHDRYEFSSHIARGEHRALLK
IKZF1 (Ikaros), sequence (Q13422 whole entry, looked up): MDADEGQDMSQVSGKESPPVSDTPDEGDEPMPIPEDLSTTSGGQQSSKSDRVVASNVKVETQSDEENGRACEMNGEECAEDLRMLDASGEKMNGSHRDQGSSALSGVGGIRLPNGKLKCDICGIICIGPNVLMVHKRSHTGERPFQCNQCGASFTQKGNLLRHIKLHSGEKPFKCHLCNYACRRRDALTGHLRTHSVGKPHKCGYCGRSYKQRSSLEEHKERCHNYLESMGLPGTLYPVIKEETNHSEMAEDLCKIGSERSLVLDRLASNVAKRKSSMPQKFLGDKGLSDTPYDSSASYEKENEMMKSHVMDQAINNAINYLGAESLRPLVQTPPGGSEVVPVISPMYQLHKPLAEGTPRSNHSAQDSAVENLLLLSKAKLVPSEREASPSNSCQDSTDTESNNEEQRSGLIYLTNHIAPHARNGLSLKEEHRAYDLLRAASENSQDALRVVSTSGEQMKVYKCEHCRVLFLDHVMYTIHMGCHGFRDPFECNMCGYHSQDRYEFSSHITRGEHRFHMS
Full length wild-type cereblon CRBN, sequence (Q96SW2 whole entry): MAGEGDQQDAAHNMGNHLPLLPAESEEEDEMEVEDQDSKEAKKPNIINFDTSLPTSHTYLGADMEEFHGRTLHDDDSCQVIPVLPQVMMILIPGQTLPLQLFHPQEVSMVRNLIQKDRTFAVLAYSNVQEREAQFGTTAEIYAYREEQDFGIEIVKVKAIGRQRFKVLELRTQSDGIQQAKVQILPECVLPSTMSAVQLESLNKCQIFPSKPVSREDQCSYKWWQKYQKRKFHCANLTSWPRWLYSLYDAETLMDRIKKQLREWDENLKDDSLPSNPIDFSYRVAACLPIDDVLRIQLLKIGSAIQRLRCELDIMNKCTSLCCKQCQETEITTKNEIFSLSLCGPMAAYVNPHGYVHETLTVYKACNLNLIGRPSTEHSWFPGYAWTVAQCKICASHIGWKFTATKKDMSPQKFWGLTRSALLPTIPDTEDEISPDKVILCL
SALL4, sequence (Q9UJQ4 whole entry, looked up): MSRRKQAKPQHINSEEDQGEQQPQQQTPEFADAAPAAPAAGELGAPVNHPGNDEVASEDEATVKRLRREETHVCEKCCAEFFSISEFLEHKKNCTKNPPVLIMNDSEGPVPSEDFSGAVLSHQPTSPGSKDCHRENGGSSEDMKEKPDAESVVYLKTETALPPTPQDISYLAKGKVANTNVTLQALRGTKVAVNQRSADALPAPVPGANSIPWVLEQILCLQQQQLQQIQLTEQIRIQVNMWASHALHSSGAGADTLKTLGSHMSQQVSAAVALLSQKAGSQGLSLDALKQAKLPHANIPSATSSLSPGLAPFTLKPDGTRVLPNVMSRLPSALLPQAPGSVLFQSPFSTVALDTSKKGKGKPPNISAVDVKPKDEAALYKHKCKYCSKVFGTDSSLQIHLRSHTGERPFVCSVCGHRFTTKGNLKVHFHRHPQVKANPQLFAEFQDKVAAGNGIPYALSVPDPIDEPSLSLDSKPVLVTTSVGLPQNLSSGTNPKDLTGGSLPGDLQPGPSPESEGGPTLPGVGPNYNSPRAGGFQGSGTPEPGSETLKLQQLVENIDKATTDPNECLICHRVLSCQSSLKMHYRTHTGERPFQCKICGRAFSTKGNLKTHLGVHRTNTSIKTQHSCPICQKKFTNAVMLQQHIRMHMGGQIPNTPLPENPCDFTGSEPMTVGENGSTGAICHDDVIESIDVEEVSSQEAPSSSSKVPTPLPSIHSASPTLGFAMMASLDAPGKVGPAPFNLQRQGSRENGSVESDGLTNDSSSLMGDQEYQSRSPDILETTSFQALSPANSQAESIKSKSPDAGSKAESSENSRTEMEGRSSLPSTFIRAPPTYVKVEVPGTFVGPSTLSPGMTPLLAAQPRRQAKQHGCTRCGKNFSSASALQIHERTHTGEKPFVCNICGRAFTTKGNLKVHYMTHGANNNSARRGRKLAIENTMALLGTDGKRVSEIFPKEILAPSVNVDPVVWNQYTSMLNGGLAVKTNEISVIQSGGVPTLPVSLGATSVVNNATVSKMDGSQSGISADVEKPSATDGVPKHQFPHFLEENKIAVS

Regarding `CC(C)(C)c1ccc(NC(=O)OCc2ccc3c(c2)C(=O)N(C2CCC(=O)NC2=O)C3)cn1` (stereo not shown) [Compound 43], the IKZF3 degradation entry in data set [1] was “B (B represents trace degradation at 30 μM (below 20%))”. Besides, the IC50 in data set [2] (read-out: rFP IC50) is greater than 1.7 µM. Also, the IKZF1 degradation result in data set [3] is reported as “A”.
Turning to `Cc1ncc(NC(=O)OCc2ccc3c(c2)C(=O)N(C2CCC(=O)NC2=O)C3)cc1Cl` (stereo not shown) [Compound 6], in data set [1], the IKZF3 degradation entry is “B (B represents trace degradation at 30 μM (below 20%))”. Also, the IC50 in data set [2] (read-out: IC50 value) is less than 1.1 µM. Also, the IKZF1 degradation entry in data set [3] is listed as “A”.
In the case of `Cc1ccc(NC(=O)OCc2ccc3c(c2)C(=O)N(C2CCC(=O)NC2=O)C3)cc1Cl` (stereo not shown) [Compound 10], in data set [4], the “SALL4 degradation (FIG. 1A)” value is on record as “none of the known the substrates IKZF1, IKZF3, SALL4, CK1alpha was degraded”. Besides, the IKZF3 degradation result in data set [1] was “B (B represents trace degradation at 30 μM (below 20%))”. For the same compound, the “IKZF3 degradation (FIG. 1A)” value in data set [1] (setting [6]) was “none of the known the substrates IKZF1, IKZF3, SALL4, CK1alpha was degraded”. The “tumor growth (tumor volume)” value in data set [5] (1 mg/kg PO once daily) is recorded as “tumor growth was suppressed for two weeks”. For the same compound, the “tumor size (tumor volume)” value in data set [5] (3 mg/kg PO once daily) was “tumor size decreased, became undetectable by day eight and remained so until the end of the study at day 21”; in data set [5] (6 mg/kg PO five days on and nine days off), “tumor size decreased, became undetectable by day eight and remained so until the end of the study at day 21”. In data set [5] (oral administration), the body weight result is “no body weight loss”. Further, the “effect on tumor growth (tumor volume)” value in data set [5] (oral administration) is on record as “tumor growth inhibition”. Moreover, the IKZF1 degradation result in data set [3] is “A”. The “IKZF1 degradation (FIG. 1A)” value in data set [3] (setting [6]) was “none of the known the substrates IKZF1, IKZF3, SALL4, CK1alpha was degraded”.
Consider `O=C1CCC(N2Cc3ccc(COC(=O)Nc4ccc(-c5ccccc5)nc4)cc3C2=O)C(=O)N1` (stereo not shown) [Compound 42], for which the IKZF3 degradation entry in data set [1] is given as “A”. In addition, the IC50 in data set [2] (read-out: rFP IC50) was greater than 1.7 µM. Besides, the IKZF1 degradation entry in data set [3] is recorded as “A”.
Take `O=C1CCC(N2Cc3ccc(COC(=O)Nc4ccc(N5CCCCC5)nc4)cc3C2=O)C(=O)N1` (stereo not shown) [Compound 15]: the IKZF3 degradation result in data set [1] is given as “B (B represents trace degradation at 30 μM (below 20%))”. For the same compound, the IC50 in data set [2] (read-out: IC50 value) is less than 1.1 µM. Further, the IKZF1 degradation entry in data set [3] is “A”.

By IC50 is commonly meant the concentration that gives 50% inhibition.
